Measured values from patent publication US20030143645A1, “Quinone reductase 2 and aldehyde dehydrogenase as therapeutic targets” (priority 2001, published 2003).

Legend:
[1] = tested on: purine binding proteome (hALDH1 and hQR2); assay: ATP affinity array / ATP-Sepharose displacement elution of RBC purine binding proteome; parameters: species or system human
Method: ATP-affinity array chromatography. In whole mouse experiments, the animal (except for its tail, feet, skin and intestines) was frozen in liquid N2 and blended in buffer A containing 50 mM Hepes, pH 7.5, 50 mM NaCl, 10 mM MgCl2, 0.1% NONIDET- P40, 1 mM dithiothreitol, 1 μg/ml leupeptin, 100 μg/ml pefabloc and 10 μg/ml aprotinin. Mouse lysate was clarified by centrifugation for 1 hr at 100,000×g. For infected and non-infected RBC's˜1.5×10^9 cells were mixed with an equal volume of 2×buffer A, rocked for 30 min at 4° C., and clarified by centrifugation for 1 hr at 100,000×g. Supernatants were dialyzed overnight against 50 mM Hepes, pH 7.5, 50 mM NaCl, 10 mM MgCl2 and 1 mM dithiothreitol. […] Proteins were resolved by 12% SDS-PAGE and visualized by staining either with Coomassie brilliant Blue R-250 or silver nitrate. Alternatively, proteins were transferred to membrane GeneMate (Kaysville, Utah) in transfer buffer (25 mM Tris, 200 mM glycine, 20% methanol, and 0.01% SDS) for mixed peptide sequencing (Damer et al, J. Biol. Chem. 273:24396 (1998)). hALDH 1 and hQR2 purification and activity assays. Fresh human red blood cells (RBC) were obtained from Valley Biomedical, washed twice with PBS, and lysed in buffer B (0.1% Triton X, 50 mM Tris pH 7.5, 125 mM NaCl, 1 μg/mL aprotonin, 1 μg/mL pepstatin and 10 μg/mL PEFABLOC). Lysates were centrifuged twice at 125,000×g for 1 hr at 4° C. Cleared supernatant was filtered through a […] filter and loaded onto PQ-Sepharose. Pure hALDH was eluted with 5 mM NADH and pure hQR2 with 5 mM NMeN. The eluants were dialyzed overnight at 4° C. against 25 mM Tris pH 8.0 and 1 mM DTT. hALDHl was assayed as described in Table 2. Purified hQR2 was assayed at 22° C. in 100 μM N-methyldihydronicotinamide, 30 μM menadione, 0.1% Triton X-100, 50 mM Tris pH 8.5, 100 μM dicoumarol (unless stated otherwise). N-methyldihydronicotinamide was synthesized (Ortiz-Maldonado et al, Biochemistry 38(50):16636-16647 (1999)) and stored in 100 mM Tris-sulfate pH 8.0.
An ATP affinity array was charged with RBC and P. falciparum (blood stage) infected RBC extract.
chromatography. P. falciparum-infected or non-infected RBCs were lysed by mixing with an equal volume of 2×buffer A and rocking for 30 min at 4° C. 1×buffer A: 50 mM Hepes, pH 7.5, 50 mM NaCl, 10 mM MgCl2, 0.1% NONIDET-P40, 1 mM dithiothreitol, 1 μg/ml leupeptin, 100 μg/ml pefabloc and 1 μg/ml aprotinin. […] Proteins were resolved by 12% SDS-PAGE and visualized by staining with Coomassie brilliant blue R-250 or silver nitrate. Alternatively, proteins were transferred to PVM membrane (Kaysville, Utah) for mixed peptide sequencing (Damer et al, J. Biol. Chem. 273(38):24396-24405 (1998)).
To better understand the mechanism of the quinolines, an attempt was made to identify all quinoline interacting proteins in a cell or animal lysate. To achieve this, a functional proteomics approach was used as outlined in FIG. 7. In this strategy, three different, yet complementary approaches were conducted to identify and validate targets of the quinolines. In step one, termed displacement affinity chromatography, a specific sub-proteome from a cell is captured on an affinity matrix by virtue of its interaction with an immobilized ligand (FIG. 7, Step 1). The sup-proteome is captured after application of saturating amounts of cell lysate and extensive washing of the resin. The compounds of interest (in this case, the quinolines) are then applied to the matrix in parallel and allowed to interact with the bound proteome. […] In the second step, affinity matrices were created by directly linking the quinoline drugs to Sepharose, and after application of cell lysates, all proteins that specifically eluted from these matrices in the presence of drug were identified (FIG. 7 Step 2).

QR1 = QR1 (Oryctolagus cuniculus, UniProt U3KNP2); assay: QR1 activity assay (Example 2); format: biochemical, rabbit; parameters: QR1 was purified from rabbit liver as previously described; from tissue; host or cells: rabbit liver
Method: Purification of native ALDH1, QR2 and QR1. RBC extract was prepared as described above and applied to PQ-Sepharose equilibrated in buffer A. ALDH1 and QR2 were obtained by eluting the column with 5 mM b-NAD^+ and NMeH respectively.
ALDH1, QR2 and QR1 activity assays. […] Reaction products were separated with a gradient of acetonitrile in 10 mM triethylamine acetic acid. […] QR1 IC50 values were calculated using GraphPad Prism.

Chain of QR1 (U3KNP2 1-274): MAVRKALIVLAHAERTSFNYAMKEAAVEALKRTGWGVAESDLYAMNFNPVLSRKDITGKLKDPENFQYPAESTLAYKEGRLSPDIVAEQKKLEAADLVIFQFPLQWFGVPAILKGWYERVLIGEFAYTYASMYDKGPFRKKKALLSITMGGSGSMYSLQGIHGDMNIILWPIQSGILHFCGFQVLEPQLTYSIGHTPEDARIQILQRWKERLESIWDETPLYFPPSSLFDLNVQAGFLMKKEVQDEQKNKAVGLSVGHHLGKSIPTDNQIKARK

proteins eluted from ATP affinity array (hALDH1 and hQR2) ([1]; non-infected red cells, drug at [mM]): selectively eluted two proteins | IC50 (QR1): > 1000 µM | effect on QR1 activity (QR1): not affected
Structure (SMILES): CCN(CC)CCCC(C)Nc1ccnc2cc(Cl)ccc12 (stereo not shown) [CQ, chloroquine]
proteins eluted from ATP-Sepharose (ALDH1 55 kDa, QR2 26 kDa) ([1]; RBC extract, 5 mM drug (Example 2)): selectively eluted proteins of 55 and 26 kDa
